Earlier results, collected in patent US11440912B2, “Process for the preparation of ribociclib and its salts” (FRESENIUS KABI ONCOLOGY LIMITED, priority 2017, dated 2022).

Details: at 80% RH

## CN(C)C(=O)c1cc2cnc(Nc3ccc(N4CCNCC4)cn3)nc2n1C1CCCC1.O=C(O)CCC(=O)O [ribociclib succinate]
  ribociclib succinate converts to hydrated form from the non-hydrated form: 0.52%
